According to patent publication US10342796B2, “Acrylanilide derivative, preparation method, and applications thereof in pharmacy” (Ancureall Pharmaceutical (Shanghai) Co., Ltd., priority 2015, dated 2019):
Like-named read-outs stand apart in the source and are kept apart here.

How the values were obtained:
[1] = system: HER2/ErbB2 amplified cell line N87; assay: In vivo tumor growth inhibition, xenograft; design: species or system Bab/c nude mice; conditions: Mus musculus, po, 456 h, 25 mg/kg intragastric once daily, day 19, read-out: TGI (%)
Text: Tumor xenograft models of immunodeficient mice are an effective tool to test the antitumor activity of the compound in vivo. Generally, the effectiveness of human tumor cell xenograft is positively correlated with the clinical treatment of human tumor. Bab/c immunodeficient mouse is one of the most commonly used xenograft animals with human tumor cells. In order to test whether the present compounds can inhibit the in vivo growth of the tumor cells expressing EGFR mutantion or HER2/ErbB2 overexpression, H1975, PC-9 and NCI-N87 cell lines were used in the experiments. When H1975, PC-9 and NCI-N87 cells were in growth logarithmic phase, they were digested with pancreatin. An appropriate amount of 1×RPMI1640 culture medium (serum-free) was added to stop digestion. The cells were collected to a 50 ml centrifuge tube (Corning), and centrifuged at 1700 rm for 3 min. The supernatant was discard, then the cells were suspended with 1×RPMI1640 culture medium and count the number. […] cells/mL was prepared and then placed on ice. 5˜10×10^6 (0.2 ml) cells were inoculated subcutaneously on the right side of the back of 6˜8 week old female Bab/c nude mice (about 20 g in weight). When the tumor average volume growed to 100˜200 mm^3, the mice were randomly divide into groups (3-6 mice per group), and marked by ear pierced tags and weighted. The test compounds and the reference compound (with a purity over 99% and individual impurity not higher than 0.2%) were formulated to emulsion suspension with CM (30% polyethylene glycol 400, 0.5% Tween-80 and 2.5% propylene glycol) respectively. Intragastric administration was continued once daily at a dosage of 25 mg/kg (0.1 ml/10 g mouse). The tumor was measured 3 times per week. When the average volume of the tumor in CM control group was up to 1500 mm^3 or after administration for 30 days, the experiment was ended.
The volume of tumor (V) was calculated as V=½*a*b^2 (a represents length of tumors, b represents width of tumors). Tumor growth inhibition (TGI) was calculated as: TGI (%)=100−(VT−VT0)/(VC−VC0)*100%; where VT0 and VT are the tumor volumes of the beginning and finish days of dosed groups; and VC0 and VC are the tumor volumes of the beginning and finish days for the control group, respectively.

[2] = system: Calu-3 (Her2 amp); assay: Growth inhibition GI50 in vitro (CCK8/MTT, 72 h); assay type: cell-based; conditions: Homo sapiens, Calu-3; Table 16; 1000 nM to 0.03 nM serial dilution; read-out: GI50 Calu3 (HER2 amp)
Method: (§1) Human lung adenocarcinoma cell line Calu-3 (ATCC) was cultured with 1×MEM complete medium (10% FBS, 1% double-antibiotics, 1% NEAA (Gibco), 2 mM glutamine and 1 mM of sodium pyruvate). Human breast cancer cell line SK-BR-3 was cultured with McCOY'S5A complete medium (10% FBS). Human colon cancer cell line SNU1040 (HER2 V777M positive) (ATCC) and human bronchoalveolar adenocarcinoma cell line NCI-H1781 (expressing HER2 exon 20 G776VC mutation) (ATCC) were cultured with 1×RPMI1640 complete medium (10% FBS), respectively.
(§2) The suspension cells were collected by centrifugation. The supernatant was discard and the cell pellet was resuspended and counted. Different cell concentrations (5˜10×10^4 cells/mL) were prepared according to the growth cycle of each cell line and then seeded on a 96-well plate (Corning), 100 μL/well. The cells were incubated over night at 37° C., 5% CO2. The compounds were added to the cells on the second day with 2 wells in parallel. The final concentration of organic solvent shall not exceed 1%. The cells were continually incubated for 72 h, and then subjected to MTT assay.
(§3) The present compounds and the reference compounds were dissolved with DMSO (Sigma), respectively. […] The storage concentration of compounds was 10 mM and kept at −20° C. They were diluted by 2 times or 10 times with serial dilution before using.
(§4) Dojindo CCK8 reagent kit was used as MTT assay. […] FC meter was used as microplate reader.
(§5) Adherent cell culture medium was discard and immediately replaced with fresh prepared medium which contains 10% CCK8 reagent (100 μL/well). For the suspension cells, CCK8 was directly added to 10% of the final concentration. The cells were continually incubated for 1˜4 h. When the color of control wells turned to dark yellow, the absorption value was measured at OD450 nm. The cell growth rate was calculated according to the following formula: cell growth rate (%)=100*(T−T0)/(C−T0), T=optical density of drug treatment cell well—optical density of blank control well; T0=optical density of cell well before drug treatment—optical density of blank control well; C=optical density of cell well of solvent control group—optical density of blank control well. […] The experiment was independently repeated 1˜3 times, and subject to biological statistical analysis.

[3] = system: N87 (HER2 Amp); assay: Growth inhibition GI50 in vitro (CCK8/MTT, 72 h); assay type: cell-based, human; conditions: Homo sapiens
[4] = system: SNU1040 (HER2 V777M positive); assay: Growth inhibition GI50 in vitro (CCK8/MTT, 72 h); assay type: cell-based; conditions: Homo sapiens; Table 16; 1000 nM to 0.03 nM serial dilution; read-out: GI50 SNU-1040 (HER2 V777M)
Method: as §1
as §2, with “Adherent cells were digested with 0.25% pancreatin-EDTA (Gibco). The suspension” for “The suspension”
as §3, §4
(§6) Adherent cell culture medium was discard and immediately replaced with fresh prepared medium which contains 10% CCK8 reagent (100 μL/well). For the suspension cells, CCK8 was directly added to 10% of the final concentration. The cells were continually incubated for 1˜4 h. When the color of control wells turned to dark yellow, the absorption value was measured at OD450 nm. The cell growth rate was calculated according to the following formula: cell growth rate (%)=100*(T−T0)/(C−T0), T=optical density of drug treatment cell well—optical density of blank control well; T0=optical density of cell well before drug treatment—optical density of blank control well; C=optical density of cell well of solvent control group—optical density of blank control well. The concentration value of 50% inhibition of cell growth (GI50) was calculated. The experiment was independently repeated 1˜3 times, and subject to biological statistical analysis.
(§7) Furthermore, the present compounds (99, 136, 205, 211, 212, 213, 216, 229, 230, 231, 232, 233 and 236) were selected to carry out growth inhibition test for HER2/ERBB2 gene amplified or high expressed or mutant tumor cells. Afatinib and AZD9291 were used for references as second- and third-generation inhibitors of EGFR.
(§8) Each compound started at 1000 nM as an initial concentration and was diluted by 2 times with serial dilution to 0.03 nM. The GI50 value of each compound was calculated according to Test Example 1.3.

[5] = system: NCI-H1781 (HER2 exon 20 G776VC mutation); assay: Growth inhibition GI50 in vitro (CCK8/MTT, 72 h); assay type: cell-based; conditions: Homo sapiens, NCI-H1781; Table 16; 1000 nM to 0.03 nM serial dilution; read-out: GI50 H1781 (HER2 G776VC)
Method: as §1
as §2, with “Adherent cells were digested with 0.25% pancreatin-EDTA (Gibco). The suspension” for “The suspension”
as §3, §4, §6, §7, §8

[6] = system: A549 (EGFR WT); assay: Growth inhibition GI50 in vitro (CCK8/MTT, 72 h); assay type: cell-based, human; conditions: Homo sapiens, A549
[7] = system: SW48 (EGFR G719S positive); assay: Growth inhibition GI50 in vitro (CCK8/MTT, 72 h); assay type: cell-based; conditions: Homo sapiens, SW48; Table 15; 1000 nM to 0.03 nM serial dilution; read-out: GI50 SW48 (EGFR G719S)
Method: PC-9ER is an acquired Erlotinib resistance cell line of PC-9 cells developed by the investor. […] The four cell lines above were cultured with 1×RPMI1640 complete medium (supplement with 10% FBS). Human colon cancer cell line SW48 (EGFR G719S positive, ATCC). was cultured with L15 complete medium (10% FB S).
as §2, §3, §4, §5
Each compound started at 1000 nM as an initial concentration and was diluted by […] with serial dilution to 0.03 nM.

[8] = system: H292 (EGFR WT); assay: Growth inhibition GI50 in vitro (CCK8/MTT, 72 h); assay type: cell-based; conditions: Homo sapiens, NCI-H292; Table 15; 1000 nM to 0.03 nM serial dilution; read-out: GI50 H292 (EGFR WT)
Text: EGFR wild type cell lines: human epidermal cancer cell line A431 (EGFR WT, amplification and high expression, from Shanghai Cell Bank of Chinese Academy of Sciences and ATCC), NSCLC cell lines NCI-H460 (EGFR WT, Kras G61H and PI3KCA E545K mutants, ATCC) and NCI-H1299 (EGFR WT, ATCC), melanoma cell line A375 (EGFR WT and BRAF V600E mutant, from Shanghai Cell Bank of Chinese Academy of Sciences, ATCC), human lung cancer cell line NCI-H292 (EGFR WT, from human lung mucoepidermoid carcinoma/lymphatic metastasis, purchased from Shanghai Cell Bank of Chinese Academy of Sciences) were cultured with 1×RPMI1640 complete medium which was supplement with 10% FBS. NSCLC cell line A549 (EGFR WT and Kras G12S mutant, from Shanghai Cell Bank of Chinese Academy of Sciences) was cultured with 1×Ham'S F12K complete medium which was supplement with 10% FBS, 1% double-antibiotics and 2 mM glutamine.
as §2, §3, §4, §5

[9] = system: PC-9 (EGFR dE746-A750); assay: Growth inhibition GI50 in vitro (CCK8/MTT, 72 h); assay type: cell-based, human; conditions: Homo sapiens
[10] = system: H1975 (EGFR L858R/T790M); assay: Growth inhibition GI50 in vitro (CCK8/MTT, 72 h); assay type: cell-based, human; conditions: Homo sapiens, NCI-H1975
[11] = Table 16, 1000 nM to 0.03 nM serial dilution, read-out: GI50 N87 (HER2 amp)
[12] = Table 13, 72 h, read-out: Range of GI50 A549 (EGFR WT)
[13] = Table 15, 1000 nM to 0.03 nM serial dilution, read-out: GI50 A549 (EGFR WT)
[14] = Table 13, 72 h, read-out: Range of GI50 PC-9 (EGFR dE746-A750)
[15] = Table 15, 1000 nM to 0.03 nM serial dilution, read-out: GI50 PC-9 (EGFR dE746-A750)
[16] = Table 13, 72 h, read-out: Range of GI50 H1975 (EGFR L858R/T790M)
[17] = Table 15, 1000 nM to 0.03 nM serial dilution, read-out: GI50 H1975 (EGFR L858R/T790M)
[18] = Table 13, 72 h, read-out: Range of GI50 N87 (HER2 Amp)

Structure (SMILES)	inhibition in vivo at 25 mg/kg [1] [%]	GI50 [2] [nM]	GI50 [3, 11] [nM]	GI50 [4] [nM]	GI50 [5] [nM]	GI50 [6, 12] [nM]	GI50 [6, 13] [nM]	GI50 [7] [nM]	GI50 [8] [nM]	GI50 [9, 14] [nM]	GI50 [9, 15] [nM]	GI50 [10, 16] [nM]	GI50 [10, 17] [nM]	GI50 [3, 18] [nM]
CN(C)C/C=C/C(=O)Nc1cc2c(Nc3ccc(F)c(Cl)c3)ncnc2cc1O[C@H]1CCOC1 [Afatinib, reference compound]	98.3	2.62	1.25	79.1	1.17									
C=CC(=O)Nc1cc(Nc2cc(Nc3cccc(C#N)c3)ncn2)c(OC)cc1N(C)CCN(C)C [Compound 229, N-(5-(6-(3-cyano-phenylamino)-pyrimidin-4-yl-amino)-2-((2-dimethylamino-ethyl)-methyl-amino)-4-methoxyl-phenyl)-acrylamide]		1.26	1.95	10.3	0.95	> 1000	> 1000	4.92	> 1000	< 10	0.98	10 to 100	19.1	< 10
C=CC(=O)Nc1cc(Nc2cc(Nc3cc(F)cc(C(F)(F)F)c3)ncn2)c(OC)cc1N(C)CCN(C)C [Compound 230, N-(5-(6-(5-fluoro-3-trifluoromethyl-phenylamino)-pyrimidin-4-yl-amino)-2-((2-dimethylamino-ethyl)-methyl-amino)-4-methoxyl-phenyl)-acrylamide]		2.67	3.9	13.2	1.91	> 1000	> 1000	5.87	> 1000	< 10	0.37	10 to 100	19	< 10
C=CC(=O)Nc1cc(Nc2cc(Nc3cc(C(F)(F)F)ccc3F)ncn2)c(OC)cc1N(C)CCN(C)C [Compound 231, N-(5-(6-(2-fluoro-5-trifluoromethyl-phenylamino)-pyrimidin-4-yl-amino)-2-((2-dimethylamino-ethyl)-methyl-amino)-4-methoxyl-phenyl)-acrylamide]		5.6	4.21	6.75	1.79	> 1000	> 1000	3.13	> 1000	< 10	0.19	10 to 100	19.5	< 10
C=CC(=O)Nc1cc(Nc2cc(Nc3cc(OC)cc(C(F)(F)F)c3)ncn2)c(OC)cc1N(C)CCN(C)C [Compound 232, N-(5-(6-(3-methoxyl-5-trifluoromethyl-phenylamino)-pyrimidin-4-yl-amino)-2-((2-dimethylamino-ethyl)-methyl-amino)-4-methoxyl-phenyl)-acrylamide]		2.49	1.92	6.82	1.02	> 1000	> 1000	4.87	> 1000	< 10	2.43	10 to 100	16.9	< 10
